We go through 32 compounds from PMC3199943, “Screening the MayBridge Rule of 3 Fragment Library for Compounds That Interact with the Trypanosoma brucei myo-Inositol-3-Phosphate Synthase and/or Show Trypanocidal Activity” (Molecular Biology International, 2011).

The target in one experiment is T1, TbINO1 (Trypanosoma brucei brucei, UniProt Q5QQ46).
T1 sequence (Q5QQ46 1-528): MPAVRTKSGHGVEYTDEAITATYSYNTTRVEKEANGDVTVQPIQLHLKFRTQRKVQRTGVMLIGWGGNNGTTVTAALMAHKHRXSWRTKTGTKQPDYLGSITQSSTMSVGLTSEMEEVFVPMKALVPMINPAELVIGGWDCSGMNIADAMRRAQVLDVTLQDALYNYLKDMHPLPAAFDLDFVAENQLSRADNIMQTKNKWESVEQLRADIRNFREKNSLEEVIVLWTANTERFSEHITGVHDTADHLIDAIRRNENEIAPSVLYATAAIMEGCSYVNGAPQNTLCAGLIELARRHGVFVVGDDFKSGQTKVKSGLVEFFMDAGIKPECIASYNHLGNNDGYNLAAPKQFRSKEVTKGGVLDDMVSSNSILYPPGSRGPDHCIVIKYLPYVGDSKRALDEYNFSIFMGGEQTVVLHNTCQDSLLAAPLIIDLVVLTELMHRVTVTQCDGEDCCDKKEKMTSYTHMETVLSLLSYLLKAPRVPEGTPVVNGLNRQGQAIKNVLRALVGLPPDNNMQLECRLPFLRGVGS
In words: biochemical. Format: binding.

The next experiment relates to HeLa cells. In words: cells. The conditions noted are these: for HeLa Cells Alamar Blue: Supplementary Table 1; for viability at 500 µM / CC50: Homo sapiens, HeLa; for viability at 500 µM: 65 h; for CC50: read-out: HeLa ED50. The method in brief:
(§1)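 Viability by Alamar Blue (5 h) after ~65 h drug treatment; seeding density 2 × 10^4 cells/well in DMEM supplemented with 10% FCS and 2 mM L-Glutamine.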
For orientation: Resazurin is reduced to fluorescent resorufin, in cell work by metabolically active cells.

For another experiment, the system named is A549 cells. In words: Cytotoxicity against A549 cells, Alamar Blue. Type of experiment: cell-based. The conditions noted are these: Supplementary Table 1, compound 0.5 mM, percentage of controls (n=1); for viability at 500 µM: Homo sapiens, A549, 65 h. The procedure, abridged: as §1
[1] abbreviates: Supplementary Table 1, compound 1mM, mean ± SD from Boltzman curve fitting.
[2] abbreviates: compound 0.5 mM, percentage of controls, mean ± SD (n=3) or SE (n=2).
[3] abbreviates: read-out: Tb Ino1 Tm Shift [˚C].
Setting [4] is: read-out: HeLa Cells Alamar Blue.
[5] abbreviates: read-out: HeLa Cells Alamar Blue, Supplementary Table 1, compound 0.5 mM, percentage of controls, mean ± SD (n=3) or SE (n=2).
Setting [6] is: Supplementary Table 1, compound 1mM, mean ± SD from Boltzman curve fitting, read-out: Tb Ino1 Tm Shift [˚C].
Where [7] appears, read: read-out: HeLa Cells Alamar Blue (% survival).

Like-named read-outs stand apart in the source and are kept apart here.

With `CC(=O)Nc1cc(C)ccc1O` [compound 303, N1‐(2‐hydroxy‐5‐methylphenyl)acetamide], at TbINO1 (setting [1]), the “Tb Ino1 Tm Shift [˚C]” value stood at 0.15 ± 0.07 °C. Besides, the “HeLa Cells Alamar Blue” value in the experiment with HeLa cells (setting [2]) is 95.3 ± 9.8 percentage of controls. Moreover, in the experiment on A549 cells, the “A549 Cells Alamar Blue” value is reported as 45 percentage of controls.
The matching figures for `CNCc1ccc2c(c1)OCO2` [compound 305, N‐(1,3‐benzodioxol‐5‐ylmethyl)‐N‐methylamine]: 1.12 ± 0.05 °C, 56.8 ± 29.4 percentage of controls and 58.3 percentage of controls.
The matching figures for `OCC1CNc2ccccc2O1` (centres unmarked) [compound 307, 3,4‐dihydro‐2H‐1,4‐benzoxazin‐2‐ylmethanol]: 0.56 ± 0.06 °C, 81 ± 17.2 percentage of controls and 70.8 percentage of controls.
On to `OCc1cc2cccnc2s1` [compound 311, thieno[2,3‐b]pyridin‐2‐ylmethanol], for which the ΔTm at 1000 µM on TbINO1 (setting [3]) came out at 0.8 ± 0.08 °C. Also, the viability at 500 µM with HeLa cells (setting [4]) is 92 ± 11.8%; in the experiment with A549 cells it was 77.5%.
The matching figures for `Nc1cc(-c2cccs2)[nH]n1` [compound 313, 5‐thien‐2‐yl‐1H‐pyrazol‐3‐amine]: 0.69 ± 0.08 °C, 101 ± 18.9% and 81.7%.
As for `CN1N=C(C(F)(F)F)CC1=O` [compound 315, 1‐methyl‐3‐(trifluoromethyl)‐4,5‐dihydro‐1H‐pyrazol‐5‐one], on TbINO1 (setting [1]), the “Tb Ino1 Tm Shift [˚C]” value is 0.09 ± 0.08 °C. Moreover, the “HeLa Cells Alamar Blue” value in the experiment with HeLa cells (setting [2]) was 109.2 ± 4.4 percentage of controls. In the experiment with A549 cells, the “A549 Cells Alamar Blue” value is given as 88.3 percentage of controls.
Turning to `O=C(O)CCc1ccccc1O` [compound 323, 3‐(2‐hydroxyphenyl)propanoic acid], the ΔTm at 1000 µM at TbINO1 (setting [3]) was 1.23 ± 0.07 °C. In addition, the viability at 500 µM in the experiment on HeLa cells (setting [4]) worked out at 113 ± 2.8%; in the experiment with A549 cells, 110%.
For the compound `N#Cc1scc2c1OCCO2` [compound 327, 2,3‐dihydrothieno[3,4‐b][1,4]dioxine‐5‐carbonitrile], on TbINO1 (setting [1]), the “Tb Ino1 Tm Shift [˚C]” value was 0.12 ± 0.06 °C. The “HeLa Cells Alamar Blue” value in the experiment with HeLa cells (setting [2]) was 115.5 ± 14.4 percentage of controls. Moreover, the “A549 Cells Alamar Blue” value in the experiment with A549 cells is 121.1 percentage of controls.
On to `O=C(O)c1cc2sccc2[nH]1` [compound 328, 4H-thieno[3,2-b]pyrrole-5-carboxylic acid], for which, at TbINO1 (read-out: TbIno1 Tm shift [°C]), the ΔTm at 1000 µM was determined as 2.29 ± 0.1 °C. Besides, the viability at 500 µM in the experiment with HeLa cells (read-out: HeLa Cells Alamar Blue (% survival), compound 0.5 mM, percentage of controls) was 106 ± 6.9%; in the experiment with HeLa cells (setting [5]), 106 ± 6.9%; in the experiment on A549 cells, 136%.
With `COc1ccc(OC)c(CN)c1` [compound 329, 2,5‐dimethoxybenzylamine], the ΔTm at 1000 µM at TbINO1 (setting [6]) stood at 0.97 ± 0.05 °C. Besides, the viability at 500 µM amounted to 26 ± 9% in the experiment with HeLa cells (setting [4]) and 156% with A549 cells.
On to `CCOC(=O)c1[nH]c(C)cc1C` [compound 330, ethyl 3,5‐dimethyl‐1H‐pyrrole‐2‐carboxylate], for which, on TbINO1 (setting [3]), the ΔTm at 1000 µM stood at 0.61 ± 0.06 °C. Moreover, the viability at 500 µM in the experiment with HeLa cells (setting [4]) is 122 ± 12.3%; in the experiment on A549 cells it was 156%.
Turning to `Cn1c(CO)cc2sccc21` [compound 331, (4-methyl-4H-thieno[3,2-b]pyrrol-5-yl)methanol], the ΔTm at 1000 µM on TbINO1 (read-out: TbIno1 Tm shift [°C]) amounted to 1.54 ± 0.07 °C. For the same compound, the viability at 500 µM with HeLa cells (setting [4]) worked out at 93.6 ± 14.9%; in the experiment with HeLa cells (setting [7]), 93.6 ± 14.9%; with A549 cells, 121%. Moreover, the CC50 with HeLa cells was found to be 0.169 ± 0.01 mM.
As for `OC1CCC(C(F)(F)F)CC1` (centres unmarked) [compound 333, 4‐(trifluoromethyl)cyclohexan‐1‐ol], the ΔTm at 1000 µM at TbINO1 (setting [3]) is 0.47 ± 0.04 °C. Besides, the figures for the viability at 500 µM in the experiment with HeLa cells (setting [4]) and in the experiment on A549 cells were 110 ± 4.4% and 114%, respectively.
The matching figures for `N#Cc1cccc(-n2ccnc2)c1` [compound 339, 3‐(1H‐imidazol‐1‐yl)benzonitrile]: 0.39 ± 0.06 °C, 89.8 ± 5.8% and 135%.
For `N#Cc1ccccc1-n1cccn1` [compound 340, 2‐(1H‐pyrazol‐1‐yl)benzonitrile], in that order: 0.18 ± 0.06 °C, 104 ± 16.5% and 134%.
Regarding `Cl.c1ccc2c(c1)CCNC2` [compound 343, 1,2,3,4‐tetrahydroisoquinoline hydrochloride], the “Tb Ino1 Tm Shift [˚C]” value at TbINO1 (setting [1]) is 0.37 ± 0.06 °C. Moreover, the “HeLa Cells Alamar Blue” value in the experiment with HeLa cells (setting [2]) is 83.5 ± 7.8 percentage of controls. In addition, the “A549 Cells Alamar Blue” value in the experiment with A549 cells is recorded as 86.3 percentage of controls.
Regarding `CC1CCN(CC(C)(C)N)CC1` [compound 349, 2‐methyl‐1‐(4‐methylpiperidino)‐2‐propanamine], the “Tb Ino1 Tm Shift [˚C]” value at TbINO1 (setting [1]) was 0.53 ± 0.06 °C. Besides, the “HeLa Cells Alamar Blue” value in the experiment on HeLa cells (setting [2]) is 108.4 ± 7.2 percentage of controls. In the experiment on A549 cells, the “A549 Cells Alamar Blue” value is 144.1 percentage of controls.
On to `Cc1cc(Cl)ccc1C(=O)O` [compound 350, 4‐chloro‐2‐methylbenzoic acid], for which the ΔTm at 1000 µM on TbINO1 (setting [3]) is 1.05 ± 0.07 °C. Also, the viability at 500 µM in the experiment with HeLa cells (setting [4]) amounted to 108 ± 9.9%; with A549 cells it was 160%.
For `Nc1cccc(-c2cncnc2)c1` [compound 353, 3‐pyrimidin‐5‐ylaniline], in that order: 0.44 ± 0.06 °C, 78.7 ± 10% and 56.4%.
For `CCOC(=O)c1csc(C)n1` [compound 356, ethyl 2‐methyl‐1,3‐thiazole‐4‐carboxylate], in that order: 0.28 ± 0.08 °C, 106 ± 5.3% and 79.8%.
For `O=C(O)Cc1cc(F)cc(F)c1` [compound 359, 2‐(3,5‐difluorophenyl)acetic acid], in that order: 0.13 ± 0.06 °C, 108 ± 13.6% and 128%.
Turning to `CC(=O)c1cc(F)cc(F)c1O` [compound 360, 1‐(3,5‐difluoro‐2‐hydroxyphenyl)ethan‐1‐one], the “Tb Ino1 Tm Shift [˚C]” value at TbINO1 (setting [1]) came out at 1.29 ± 0.05 °C. Further, the “HeLa Cells Alamar Blue” value with HeLa cells (setting [2]) was 103.5 ± 10 percentage of controls. Also, the “A549 Cells Alamar Blue” value in the experiment with A549 cells was 149.7 percentage of controls.
In the case of `N#Cc1cccc(N2CCCC2)c1` [compound 362, 3‐pyrrolidin‐1‐ylbenzonitrile], the ΔTm at 1000 µM at TbINO1 (setting [3]) turned out to be 0.05 ± 0.07 °C. Further, the viability at 500 µM is 97.4 ± 19.9% with HeLa cells (setting [4]) and 63.3% in the experiment with A549 cells.
For `O=C(O)c1ccnc2ccccc12` [compound 368, quinoline‐4‐carboxylic acid], in that order: 0.33 ± 0.08 °C, 90.7 ± 7.5% and 90.3%.
As for `O=C(O)c1ccc2ccccc2n1` [compound 369, 2‐quinolinecarboxylic acid], the ΔTm at 1000 µM on TbINO1 (setting [6]) came out at 0.1 ± 0.67 °C. In addition, the viability at 500 µM was determined as 81.3 ± 14.1% with HeLa cells (setting [5]) and 152% in the experiment on A549 cells.
As for `O=C(O)c1ccc2ncccc2c1` [compound 370, quinoline‐6‐carboxylic acid], on TbINO1 (setting [3]), the ΔTm at 1000 µM is 0.57 ± 0.04 °C. In addition, the viability at 500 µM is 109 ± 13.1% in the experiment on HeLa cells (setting [4]) and 152% with A549 cells.
For `OCc1ccccc1-n1cccc1` [compound 371, [2‐(1H‐pyrrol‐1‐yl)phenyl]methanol], in that order: 0.36 ± 0.07 °C, 88.5 ± 6.4% and 87.3%.
Consider `OCc1ccc(-n2cccc2)cc1` [compound 372, [4-(1H-pyrrol-1-yl)phenyl]methanol], for which the ΔTm at 1000 µM on TbINO1 (read-out: TbIno1 Tm shift [°C]) stood at 3.12 ± 0.04 °C. Also, the results for the viability at 500 µM with HeLa cells (setting [4]), with HeLa cells (setting [7]) and in the experiment with A549 cells were 94.9 ± 19.4%, 94.9 ± 19.4% and 52.9%, respectively. Besides, in the experiment on HeLa cells, the CC50 was 3.3 ± 0.21 mM.
In the case of `NCc1ccc(-c2ccco2)cc1` [compound 373, [4‐(2‐furyl)phenyl]methylamine], the ΔTm at 1000 µM at TbINO1 (setting [3]) stood at 0.48 ± 0.05 °C. In addition, the viability at 500 µM in the experiment with HeLa cells (setting [4]) amounted to 82.5 ± 14.3%; in the experiment with A549 cells it was 63.4%.
In the case of `Cc1ccc2cc(CO)ccc2n1` [compound 374, (2‐methyl‐6‐quinolinyl)methanol], the ΔTm at 1000 µM on TbINO1 (setting [3]) stood at 0.1 ± 0.06 °C. Also, the viability at 500 µM with HeLa cells (setting [4]) was 53.2 ± 2.6%; with A549 cells it was 46.3%.
Take `Nc1cccc(Cn2ccnc2)c1` [compound 377, 3‐(1H‐imidazol‐1‐ylmethyl)aniline]: the ΔTm at 1000 µM on TbINO1 (setting [3]) was 0.19 ± 0.07 °C. Further, the viability at 500 µM stood at 103 ± 12.6% in the experiment on HeLa cells (setting [4]) and 62.4% in the experiment on A549 cells.
For `NCc1ccc(-n2cccn2)cc1` [compound 378, 4‐(1H‐pyrazol‐1‐yl)benzylamine], in that order: 0.19 ± 0.06 °C, 101 ± 8.3% and 95.9%.
